In test [1] the test system is AKAP-Lbc mediated RhoA/SRF activation. The experiment in a line: Dual luciferase SRE reporter assay, AKAP-Lbc transfected HEK293. Format: cell-based. Particulars: Homo sapiens. How it is done:
The experiments were performed following the protocol of the dual luciferase reporter assay (Promega). HEK293 cells were transfected with plasmid DNAs of two luciferases and plasmids of different exchange factors. A serum response element was located ahead of the coding luciferase sequences. Activated RhoA activates the serum response element, which enables the expression of the firefly luciferase. After 4 hours the cells were treated with compound 31413. After additional twenty four hours the cells were lysed in passive lysis buffer (Promega). The luciferase activity in the cell lysate was determined by measurement of the luminescence signal according to above mentioned protocol with 96 well plate (OptiPlate 96) and LarII- and. Stop-&Glow-substrate solutions in a micro plate reader
To rule out that other RhoGEF are influenced by the inventive compounds in their activity, HEK293 cells were transfected with different RhoGEF constructs. Additionally, as normalization control, two luciferase plasmids were added, which code for a serum response element (SRE) coupled firefly luciferase and for a Renilla luciferase, respectively. […] The luciferase activities were determined in the lysate. […] Further, the luciferase activity of the indicated RhoGEFs was analysed in absence or presence of 50 μmol/L compound 31413 (FIG. 4 B).
(In general: In a reporter assay the amount or activity of a reporter protein is the signal.)

Test [2] deals with primary neonatal rat cardiomyocytes. The experiment in a line: Beat frequency of neonatal cardiomyocytes by Fluo-4 calcium measurement. Format: cell-based.
Protocol: For cultivation of primary neonatal rat cardiomyocytes, hearts of two to three days old rats were obtained and quickly stored on ice in ADS buffer (116.4 mM NaCl, 5.4 mM KC, 5.6 mM dextrose, 10.9 mM NaH2PO4, 405.7 μmol/L MgSO4, 20 mM Hepes, pH 7.3). Under sterile conditions, the hearts were cleaned from blood and vessels, cut into small pieces and transferred into falcon tubes. The ADS buffer was exchanged against an enzyme solution (see table below). Within four cycles each with five ml enzyme solution and an enzyme mix comprising collagenase and pancreatin, isolated cells were released from the tissue (12 min at 37° C. in a water bath with approx. 220 rpm).
The supernatant with the isolated cells was collected, transferred in fetal calf serum (FCS, 2.5 ml on ice) and subsequently centrifugated in FCS (100 g for 3 min at 4° C.). The supernatant of the centrifugation was discarded and the pellet was resuspended in 5 ml cold plating medium. After an additional centrifugation, the pellet was resuspended in 15 ml medium, transferred into a dish and incubated for two hours at 37° C. to allow the settling of the fibroblasts. The cardiomyocytes in the supernatant were counted with a Scepter Handheld Automated Cell Counter and transferred in dishes coated with gelatine. On the following day the medium was changed.
The frequency of contraction could be determined in a similar manner with a calcium sensor (Fluo-4). In a laser-scanning microscope, Fluo-4 was excited with an argon laser (488 nm) and the emission signals were detected and collected at a wavelength of 505 nm. The fluorescence intensity represented the intracellular concentration of calcium ions. Usually, the line-scan mode was used for image recording, and the line-scan images were recorded with a speed of 1.54 or 1.92 ms per line along the longitudinal axis of the cell. After the sequential image recording, a two-dimensional image with 512×100 lines or 512×2000 lines was generated and saved for later analysis.
Additional calcium measurements were performed. […] The fluorescence dye Fluo-4 was added after 20 min. Fluo-4 is a calcium sensor, which is used for investigating the calcium increase in cells. In cardiomyocytes the dye serves for examining the contractility. During contraction and relaxation, the calcium concentrations differ in the cytosol of cardiomyocytes. The fluorescence intensity of Fluo-4 increases with an increasing calcium concentration, and a decreasing calcium concentration will cause reduced fluorescence intensity. A frequency could be calculated from the fluo-4 fluorescence oscillation by a time depended analysis, wherein the fluorescence was measured over a period of two hours. The ground state at the moment before application (black), the period 10 to 30 sec after application (dark grey) and 70 to 110 sec after application (light grey) were evaluated (FIG. 5). Application refers to the adding of PE or adrenaline. […] The statistical analysis was performed according to the method of analysis of variance (ANOVA).
Test [3] has as its system primary neonatal cardiomyocytes (α-sceletal muscle actin mRNA). The experiment in a line: Hypertrophy marker α-actin 1 mRNA by quantitative real-time PCR. Type of test: cell-based, rat. How it is done:
Primary neonatal cardiomyocytes were prepared as described above. The cardiomyocytes were stimulated for 24 or 48 hours with 100 μmol/L phenylephrin (PE) or 10 μmol/L isoproterenol (ISO) in absence or presence of 10 μmol/L or 50 μmol/L of compound 31413.
After 24 hours or 48 hour of stimulation, the medium was removed, and every well was washed with 2 ml phosphate buffered saline and fixed with 200 μl TRIzol. The cells were removed from each well and transferred into a 1.5 ml Eppendorf tube, respectively.
For cell breakdown, 40 μl chloroform was added to each Eppendorf tube. The broken cells were centrifuged for 15 min at 1400 g and 4° C. The supernatant containing RNA/DNA was taken, mixed with 100 μl isopropanol and centrifugated for 20 min at 1500 g and 4° C. The supernatant was discarded and the pellet was resuspended in 500 μL ethanol. The RNA from the pellet was purified by chromatography. The concentration of the RNA was determined by NANODROP.
The quantification of the hypertrophy marker α-sceletal muscle actin (α-actin 1) mRNA was performed by quantitative real-time PCR. First, the RNA was transcribed to a cDNA with a SuperScript™III First-Strand Synthesis SuperMix (Invitrogen) and random hexamer primers. The cDNA was amplified in a PCR reaction in an Applied Biosystem StepOne™ Real-Time PCR System. Glycerinealdehydephosphate dehydrogenase and NTC (no template control) was used as controls. All samples were triplicates. The following primers have been used: […]
In general terms: In qPCR the cycle at which signal appears reflects the starting amount.

Another test concerns 3T3 mouse fibroblasts. The experiment in a line: LPA-induced stress fibre formation, TRITC-phalloidin fluorescence. Type of test: cell-based. Particulars: 3T3 cells, LPA 300 nM 10 min; compound 30 μmol/L 30 min pre-treatment. The source says:
For the initial analysis, 3T3 cells were used to evaluate the cellular effects of the compounds of the present invention. In these cells changes in the cytoskeleton caused by GTPase activation are well observable, because the cells have a G protein coupled receptor for LPA. A stimulation of 3T3 cells with LPA leads to an activation of RhoA and thereby to the formation of fibrillar actin filaments (F-actin, stress fibres). The participation of AKAP-Lbc as an exchange factor for RhoA within the signal transduction via a G protein of the G−12/13 family was shown.
3T3 mouse fibroblasts were seeded on 30 mm cover slips (in 6 well plates) in a cell density of 2×10^5 cells/well. […]
Following that, the cells were washed with phosphate buffer (Dulbecco's Phosphate-Buffered Saline++) and fixed in 2.5% paraformaldehyde in sodium cacodylate buffer (100 mmol/L sodium cacodylate, 100 mmol/L sucrose, pH 7.4) for 15 min. […] For the microscopic investigations, images were taken with two different fluorescence channels. […]
Without LPA stimulation no stress fibres could be identified after addition of DMSO instead of the compounds of the invention (FIG. 2A, a). […] The quantification of the stress fibre formation were performed with the software package ImageJ by the determination of the overall fluorescence of the TRITC-phalloidin. […]

The mark [4] stands for this setting: Fluo-4, pre-incubation 2.5 μmol/L.

What is called IC50 is the concentration that gives 50% inhibition. The low end stands for greater potency in that assay, the high end for weaker potency in that assay.

SMILES strings stand for the structures.

Regarding `COc1ccc(-c2coc3cc4oc(=O)c(C)c(C)c4cc23)cc1` [Compound 31413, 3-(4-methoxyphenyl)-5,6-dimethyl-furo[3,2-g]chromen-7-one], the IC50 in test [1] was about 25 µM. Besides, in test [2], the “adrenalin (beta-adrenoceptor)-induced increase in cardiac myocyte beating frequency” value is “does not, however, affect”. Besides, in test [2] (setting [4]), the “PE induced increase of beat rate” value is given as “inhibited only the PE induced increase of beat rate” and the “adrenaline induced increase of beat rate” value is given as “not the adrenaline induced one”. The “α-actin 1 mRNA amount” value in test [3] (PE 100 μmol/L 24 h, compound 10 or 50 μmol/L) is on record as “concentration dependent decrease”. Besides, the “relative amount of α-actin 1 mRNA” value in test [3] (without PE stimulation) is “no significant change”. For the same molecule, in the test on 3T3 mouse fibroblasts, the “formation of stress fibres” value is on record as “suppression of the stress fibre formation”.

These data come from US20160008339A1, “PSORALEN DERIVATIVES FOR PREVENTING OR TREATING HEART FAILURE OR CARDIAC HYPERTROPHY” (MAX-DELBRUCK-CENTRUM FUR MOLEKULARE MEDIZIN, priority 2012, published 2016).
